Where two headings read alike, the source gives them in different places.
Columns and labels:
[1] = tested on: mitochondrial genome and DHFR gene of IMR-32 cells; assay: Gene-specific Southern hybridisation assay of DNA adducts / virtual crosslinks; assay type: cell-based, human; conditions: for level of DNA adducts (percentage of double stranded DNA): IMR-32, Adriamycin alone, or Adriamycin with 25-fold excess of AN-9 (added 2 hr after or 2 hr before)
Experimental: We sought to investigate the level of DNA adducts formed under various treatment conditions, since we speculated that the peculiar effectiveness of the Adriamycin/AN-9 combination might be due to increased levels of DNA damage in the form of DNA adducts. IMR-32 human neuroblastoma cells (A and B) and MCF-7 human breast adenocarcinoma cells (C and D) were treated with Adriamycin for 2 hr ([…] as shown) followed by a further 2 hr incubation with a 25-fold excess of AN-9 (▪), or treated with AN-9 for 2 hr followed by a further 4 hr incubation with Adriamycin (□). Genomic DNA was isolated using mild conditions (Cutts et al., 2001) and subjected to gene-specific Southern hybridisation analysis. For detection of the mitochondrial genome, DNA was restriction digested with BamHI, and unreacted or intercalated drug was removed by phenol/chloroform extraction and ethanol precipitation. Samples were resuspended in 60% formamide and heat denatured at 60° C. for 5 min. Samples were resolved electrophoretically through 0.8% agarose, transferred to nylon membranes and probed with mitochondrial RNA. The percentage of double stranded DNA was calculated by phosphorimage analysis; this correlates with adduct formation in the mitochondrial genome (A and C), since the adducts behave functionally as virtual interstrand crosslinks (Zeman et al., 1998; Cullinane et al., 2000). For detection of the DHFR gene, DNA was digested with HindIII and processed as described above; however, randomly primed DHFR DNA was used as the probe for Southern analysis (B and D). Data were derived from each of two separate blots of two biological experiments, and the values are represented as the mean±SE. […] This provides a biochemical basis for the synergistic/antagonistic cytotoxicity relationship.
It was known that the formation of Adriamycin adducts was highly time-dependent. To confirm that the adducts behave as classical Adriamycin adducts, and also to investigate the optimal conditions for adduct formation, a time course study was initiated. IMR-32 cells were treated with a combination of 4 μM Adriamycin and 100 μM AN-9 for 0-8 hr as described above. Phosphorimage analysis was used to quantitate the time-dependent formation of adducts in the mitochondrial genome (A) and DHFR gene (B).
In order to gain some understanding as to why synergy was greatest when AN-9 was added at the same time as, or after, Adriamycin, a time course of addition of AN-9 was studied. IMR-32 cells were exposed to 4 μM Adriamycin for 4 hr. […] Adduct/crosslinking levels are shown in FIG. 3 for both mitochondrial (A) and nuclear (B) DNA, using probes for mtDNA and the DHFR gene respectively. Phosphorimage analysis was used to quantitate the fraction of DS DNA, a measure of adduct formation, for each treatment condition. Adduct formation fluctuated greatly, and depended on a relatively small time frame within which AN-9 was added to cells. […] This enabled us to predict that if AN-9 was added shortly after Adriamycin in cytotoxicity assays, within say approximately 2 hr, then the Combination Index obtained would be even better than when the drugs were added simultaneously.
IMR-32 cells were exposed to Adriamycin (6 μm) for 4 hr, and AN-9 (125 μM) was added at varying times from 24 hr prior to Adriamycin addition (−24) to 2 hr after Adriamycin. Genomic DNA was extracted from cells and then processed for Southern analysis. Phosphorimage analysis was used for quantitation of the adducts in mtDNA (A) and the DHFR gene (B), and the results are shown in FIG. 4.

HL-60 cells = conditions: cited from earlier work
[2] = tested on: mitochondrial genome and DHFR gene of MCF-7 cells; assay: Gene-specific Southern hybridisation assay of DNA adducts / virtual crosslinks; assay type: cell-based, human; conditions: Adriamycin alone, or Adriamycin with 25-fold excess of AN-9 (added 2 hr after or 2 hr before)
Experimental: We sought to investigate the level of DNA adducts formed under various treatment conditions, since we speculated that the peculiar effectiveness of the Adriamycin/AN-9 combination might be due to increased levels of DNA damage in the form of DNA adducts. IMR-32 human neuroblastoma cells (A and B) and MCF-7 human breast adenocarcinoma cells (C and D) were treated with Adriamycin for 2 hr ([…] as shown) followed by a further 2 hr incubation with a 25-fold excess of AN-9 (▪), or treated with AN-9 for 2 hr followed by a further 4 hr incubation with Adriamycin (□). Genomic DNA was isolated using mild conditions (Cutts et al., 2001) and subjected to gene-specific Southern hybridisation analysis. For detection of the mitochondrial genome, DNA was restriction digested with BamHI, and unreacted or intercalated drug was removed by phenol/chloroform extraction and ethanol precipitation. Samples were resuspended in 60% formamide and heat denatured at 60° C. for 5 min. Samples were resolved electrophoretically through 0.8% agarose, transferred to nylon membranes and probed with mitochondrial RNA. The percentage of double stranded DNA was calculated by phosphorimage analysis; this correlates with adduct formation in the mitochondrial genome (A and C), since the adducts behave functionally as virtual interstrand crosslinks (Zeman et al., 1998; Cullinane et al., 2000). […]

[3] = tested on: genomic DNA of IMR-32 cells; conditions: for adduct levels compared to Adriamycin alone / relative effectiveness in activating adduct formation: 4 μM [14C] Adriamycin simultaneously with 100 μM aldehyde-releasing compound
Experimental: IMR-32 cells were seeded into 3.5 cm petri dishes at a density of 7.5×10^5 cells/dish 24 hr prior to exposure to 41M [^14C]-Adriamycin for 4 hr. In other treatments 100 μM AN-9 was added at varying times: 2 hr prior to Adriamycin addition (−2); simultaneously (O); and 2 hr after Adriamycin (2). Cells were harvested, and the genomic DNA was isolated. Samples were then extracted twice with phenol and once with chloroform, and DNA was selectively precipitated from RNA by ammonium acetate precipitation. DNA pellets were resuspended in 100 μL TE buffer, and the concentration determined spectrophotometically at 260 nm. Aliquots of the genomic DNA (50 μL) were each added to 1 mL of Optiphase Hisafe scintillation cocktail, and the incorporation of [^14C]-labelled drug into the DNA was monitored using a Wallac 1410 Liquid Scintillation Counter.
IMR-32 cells were exposed to 6 μM [^14C]-Adriamycin alone (Adr) for 4 hr, or together with 125 μl AN-9 at varying times: 16 hr prior (−16), 2 hr prior (−2), simultaneously (0), and 2 hr after Adriamycin addition (2). […] Genomic DNA was extracted from the cells, and incorporation of radiolabelled drug was determined by scintillation counting to determine the level of [^14C] adducts per 10 kb.
Therefore, IMR-32 cells were treated with 4 μM [^14C] Adriamycin and were simultaneously treated with 100 μM of selected aldehyde-releasing compound. Cells were harvested, genomic DNA was extracted and scintillation analyses were performed as described above.
To test whether a greater fraction of Adriamycin can be utilized for adduct formation when the amount of available formaldehyde is increased, the concentration dependence of AN-9 was investigated. IMR-32 cells were treated with [^14C] Adriamycin at a constant concentration of 4 μM. AN-9 was added 2 hr after Adriamycin at concentrations ranging from 4 μM (1:1) to 500 μM (1:125), and the treatment continued for a further 2 hr. Cells were harvested, DNA was extracted and samples were analysed for incorporation of [^14C].
Adducts (lesions/10 kb) were determined by incubating IMR-32 cells in the presence of 2 μM [^14C]Adriamycin for 2 hr. followed by an additional 2 hr in the presence or absence of 100 μM AN-9. Semi-carbazide addition was at the same time as Adriamycin (ie 2 hr before AN-9). However, values in parentheses indicate that semi-carbazide addition was at the same time as AN-9 treatment (ie 2 hr after Adriamycin).
Adriamycin for 4 hr. These were simultaneously incubated with the indicated aldehyde-releasing compound at a final concentration of 100 μM. Samples were harvested as indicated previously and DNA was assessed for incorporation of radioactively labelled Adriamycin.

DNA = conditions: cited from earlier work
IMR-32 cells = assay: Cell viability assay, relative survival with semi-carbazide; assay type: cell-based, human; conditions: IC50 relative to Adriamycin alone; 72 hr; presence or absence of 50 μM AN-9; no semi-carbazide
Experimental: To obtain data representing relative survival, cells were seeded at a density of 1×10^4 per well and exposed to increasing concentrations of Adriamycin in the presence or absence of 50 μM AN-9 and/or semi-carbazide (0.25, 0.5 or 1.0 mM as indicated) for 72 hr. IC50 values for various combinations are shown as relative survival compared to Adriamycin alone. […] Overall, the critical role of formaldehyde was confirmed by reversal of formaldehyde-mediated effects by semi-carbazide, which reduced adduct formation and also abolished the cytotoxicity resulting from the interaction of AN-9 with Adriamycin.

[4] = 4 μM [14C] Adriamycin, 500 μM AN-9 (1:125) added 2 hr after
[5] = 6 μM [14C]-Adriamycin 4 hr, AN-9 16 hr prior to Adriamycin

## C1N2CN3CN1CN(C2)C3 [hexamethylenetetramine, reference compound]
[1]; 15 μM Adriamycin, 4 hr later 0-2.5 mM hexamethylenetetramine, harvested after 8 hr
  facilitation of Adriamycin adduct formation: not as effective as AN-9

## CCCC(=O)OCOC(=O)C(C)(C)C [AN-9, Pivaloyloxymethyl Butyrate]
HL-60 cells
  histone acetylation: induce histone acetylation
  time after exposure at which basal level of acetylation is re-established: 6 h
[2]
  level of DNA adducts (percentage of double stranded DNA): dramatic increases in the level of DNA adducts
[1]; 4 μM Adriamycin 4 hr, 100 μM AN-9 added shortly after Adriamycin, compared with simultaneous addition
  adduct/crosslinking levels: greatly enhanced levels of adducts
[1]; Adriamycin (6 μm) 4 hr, AN-9 (125 μM) administered 5-24 hr prior to Adriamycin
  enhancement of adduct levels: no enhancement of adduct levels
[1]
  level of DNA adducts (percentage of double stranded DNA): dramatic increases in the level of DNA adducts
[1]; barminomycin 0-20 nM, 12,500-fold excess of AN-9, added after or 2 hr before barminomycin
  effect on the ability of barminomycin to induce DNA crosslinks: no effect
[3]
  adduct levels compared to Adriamycin alone: enhanced adduct levels
  relative effectiveness in activating adduct formation: most effective
[3]; 4 μM [14C] Adriamycin, 500 μM AN-9
  total Adriamycin added to cells incorporated into DNA adducts: approximately 5%
[3]; [4]
  adduct levels relative to the 1:20-1:25 ratio: approximately 10 fold
  potentiation of Adriamycin adduct levels: approximately 100 fold
[3]; 4 μM [14C] Adriamycin, AN-9 added 2 hr after, further 2 hr, Adriamycin:AN-9 1:20-1:25
  Adriamycin adducts: 10 adducts per 10 kb
[3]; 4 μM [14C] Adriamycin, AN-9 added 2 hr after, Adriamycin:AN9 1:1-1:5
  enhancement of adduct formation: poor
[3]; [5]
  levels of Adriamycin adducts: 1.7 /10 kb
  loss of adducts compared to Adriamycin alone: 40%
[3]; 6 μM [14C]-Adriamycin 4 hr, AN-9 added 2 hr after Adriamycin
  enhancement of adducts compared to Adriamycin alone: approximately 20 fold
[3]; 41M [14C]-Adriamycin 4 hr, 100 μM AN-9 2 hr after Adriamycin
  level of Adriamycin adducts: ~24 per 10 kb
[3]; 41M [14C]-Adriamycin 4 hr, 100 μM AN-9 2 hr prior to Adriamycin
  level of Adriamycin adducts: ~3.5 per 10 kb
[3]; 41M [14C]-Adriamycin 4 hr, 100 μM AN-9, vs Adriamycin alone
  potentiation of the level of Adriamycin adducts: up to 15 fold
[3]; 41M [14C]-Adriamycin 4 hr, 100 μM AN-9 simultaneously
  level of Adriamycin adducts: approximately 12 per 10 kb

## CCCC(=O)OC(C)OP(=O)(OCC)OCC (stereo not drawn) [AN-88, 1-Butyroyloxyethyldiethyl Phosphate]
[3]
  adduct levels compared to Adriamycin alone: reinforced the concept that it was the released formaldehyde which was solely responsible for increased adduct formation

## COc1cccc2c1C(=O)c1c(O)c3c(c(O)c1C2=O)C[C@@](O)(C(=O)CO)C[C@@H]3O[C@H]1C[C@H](N)[C@H](O)[C@H](C)O1 [Adriamycin, reference compound]
[2]
  level of DNA adducts (percentage of double stranded DNA): no adducts were detected
DNA
  half-life of Adriamycin adducts: 5 to 40 h
[1]
  level of DNA adducts (percentage of double stranded DNA): no adducts were detected
[3]; 6 μM [14C]-Adriamycin alone 4 hr
  levels of Adriamycin adducts: 2.8 /10 kb
[3]; 41M [14C]-Adriamycin 4 hr, absence of AN-9
  level of Adriamycin adducts: approximately 1.5 per 10 kb
IMR-32 cells
  Relative survival: 1.00 ± 0.12

## CCCC(=O)OCOP(=O)(OCC)OCC [AN-7, Butyroyloxymethyldiethyl Phosphate]
[3]
  adduct levels compared to Adriamycin alone: enhanced adduct levels
  relative effectiveness in activating adduct formation: good activity

## CCCC(=O)O [Butyric acid, reference compound]
[3]; 6 μM [14C]-Adriamycin 4 hr, sodium butyrate (1 mM) 16 hr prior, 2 hr prior, simultaneously or 2 hr after
  increase in Adriamycin adduct levels: no significant increases in adduct levels

## CCC(=O)OC(C)OC(=O)CC [AN-188, Ethylidene Dipropionate]
[3]
  adduct levels compared to Adriamycin alone: reinforced the concept that it was the released formaldehyde which was solely responsible for increased adduct formation

Reference: patent US20040110727A1, “Aldehyde-releasing compounds” (priority 2000, published 2004)
